Measured values reported in US7109193B2, “Tricyclic diazepines tocolytic oxytocin receptor antagonists” (Wyeth, priority 2001, dated 2006).

system: not given; experiment: not given; conditions: not given

Compound	melting point
COc1ccccc1-c1ccc(C(=O)N2Cc3ccc(C(=O)O)n3Cc3ccccc32)cc1C [Example 9, 10-[(2′-Methoxy-2-methyl-[1,1′-biphenyl]-4-yl)carbonyl]-10,11-dihydro-5H-pyrrolo[2,1-c][1,4]benzodiazepine-3-carboxylic acid]	174 to 184 °C
COc1cc2c(cc1OC)N(C(=O)c1ccc(-c3ccccc3C(F)(F)F)c(C)c1)Cc1cccn1C2 [Example 12, 7,8-Dimethoxy-[10,11-dihydro-5H-pyrrolo[2,1-c][1,4]benzodiazepin-10-yl][2-methyl-2′-(trifluoromethyl)[1,1′-biphenyl]-4-yl]methanone]	187 to 188 °C
COc1cc(-c2ccccc2C(F)(F)F)c(Cl)cc1C(=O)N1Cc2ccc(C(=O)O)n2Cc2ccccc21 [Example 15, 10-{[6-Chloro-3-methoxy-2′-trifluoromethyl-[1,1′-biphenyl]-4-yl]carbonyl}-10,11-dihydro-5H-pyrrolo[2,1-c][1,4]benzodiazepine-3-carboxylic acid]	220 to 222 °C (dec.)

molecular target: T1, human vasopressin V2 receptor subtype (Homo sapiens, UniProt P30518); experiment: Vasopressin binding in Chinese Hamster Ovary cell membranes expressing human vasopressin V2 subtype receptors; conditions: 100 nM, CHO cell membranes, [3H]arginine vasopressin, values without parentheses
T1 construct: host or cells: CHO cells (pZeoSV vector)
T1 sequence (P30518 whole entry): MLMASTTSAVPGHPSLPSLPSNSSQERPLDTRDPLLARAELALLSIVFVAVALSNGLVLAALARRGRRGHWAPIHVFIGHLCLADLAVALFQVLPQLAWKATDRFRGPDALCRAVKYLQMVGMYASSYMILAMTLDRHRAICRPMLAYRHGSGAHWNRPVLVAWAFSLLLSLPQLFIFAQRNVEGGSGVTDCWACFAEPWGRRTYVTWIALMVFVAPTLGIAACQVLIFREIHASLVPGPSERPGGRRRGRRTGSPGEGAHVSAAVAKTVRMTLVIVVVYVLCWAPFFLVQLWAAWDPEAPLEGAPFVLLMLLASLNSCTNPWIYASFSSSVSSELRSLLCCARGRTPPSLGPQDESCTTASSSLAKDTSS
Outline: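 Radioligand displacement on membranes from CHO cells stably expressing human V2 receptor, 25 to 50 μg protein/well, in 50 mM Tris-HCl pH 7.4 with MgCl2, BSA and protease inhibitors. [^3H]arginine vasopressin (8 nM working solution) incubated 60 min at room temperature; bound label measured by filtration and scintillation counting.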

Compound	inhibition at 0.1 µM [%]
COc1ccccc1-c1ccc(C(=O)N2Cc3ccc(C(=O)O)n3Cc3ccccc32)cc1C [Example 9, 10-[(2′-Methoxy-2-methyl-[1,1′-biphenyl]-4-yl)carbonyl]-10,11-dihydro-5H-pyrrolo[2,1-c][1,4]benzodiazepine-3-carboxylic acid]	42
COc1cc2c(cc1OC)N(C(=O)c1ccc(-c3ccccc3C(F)(F)F)c(C)c1)Cc1cccn1C2 [Example 12, 7,8-Dimethoxy-[10,11-dihydro-5H-pyrrolo[2,1-c][1,4]benzodiazepin-10-yl][2-methyl-2′-(trifluoromethyl)[1,1′-biphenyl]-4-yl]methanone]	-1
COc1cc(-c2ccccc2C(F)(F)F)c(Cl)cc1C(=O)N1Cc2ccc(C(=O)O)n2Cc2ccccc21 [Example 15, 10-{[6-Chloro-3-methoxy-2′-trifluoromethyl-[1,1′-biphenyl]-4-yl]carbonyl}-10,11-dihydro-5H-pyrrolo[2,1-c][1,4]benzodiazepine-3-carboxylic acid]	27
C=CCN1CCN(C(=O)c2ccc3n2Cc2ccccc2N(C(=O)c2cc(Cl)c(-c4cccc(OC)c4)cc2OC)C3)CC1 [Example 226, (4-Allyl-1-piperazinyl){10-[(6-chloro-3,3′-dimethoxy[1,1′-biphenyl]-4-yl)carbonyl]-10,11-dihydro-5H-pyrrolo[2,1-c][1,4]benzodiazepin-3-yl}methanone]	10
C=CCN1CCN(C(=O)c2ccc3n2Cc2ccccc2N(C(=O)c2ccc(-c4ccccc4OC)c(OC)c2)C3)CC1 [Example 227, (4-Allyl-1-piperazinyl){10-[(2,2′-dimethoxy[1,1′-biphenyl]-4-yl)carbonyl]-10,11-dihydro-5H -pyrrolo[2,1-c][1,4]benzodiazepin-3-yl}methanone]	2
C=CCN1CCN(C(=O)c2ccc3n2Cc2ccccc2N(C(=O)c2ccc(-c4cccc(OC)c4)c(OC)c2)C3)CC1 [Example 228, (4-Allyl-1-piperazinyl){10-[(2,3′-dimethoxy[1,1′-biphenyl]-4-yl)carbonyl]-10,11-dihydro-5H -pyrrolo[2,1-c][1,4]benzodiazepin-3-yl}methanone]	20
C=CCN1CCN(C(=O)c2ccc3n2Cc2ccccc2N(C(=O)c2ccc(-c4cccc5ccccc45)cc2Cl)C3)CC1 [Example 229, (4-Allyl-1-piperazinyl){10-[2-chloro-4-(1-naphthyl)benzoyl]-10,11-dihydro-5H-pyrrolo[2,1-c][1,4]benzodiazepin-3-yl}methanone]	27
C=CCN1CCN(C(=O)c2ccc3n2Cc2ccccc2N(C(=O)c2ccc(-c4ccccc4C(F)(F)F)c(C)c2)C3)CC1 [Example 230, (4-Allyl-1-piperazinyl)(10-{[2-methyl-2′-(trifluoromethyl)[1,1′-biphenyl]-4-yl]carbonyl}-10,11-dihydro-5H-pyrrolo[2,1-c][1,4]benzodiazepin-3-yl)methanone]	4
C=CCN1CCN(C(=O)c2ccc3n2Cc2ccccc2N(C(=O)c2ccc(-c4cccc5ccccc45)c(OC)c2)C3)CC1 [Example 231, (4-Allyl-1-piperazinyl){10-[3-methoxy-4-(1-naphthyl)benzoyl]-10,11-dihydro-5H -pyrrolo[2,1-c][1,4]benzodiazepin-3-yl}methanone]	-5
COc1ccccc1-c1ccc(C(=O)N2Cc3ccc(C(=O)N4CCN(C(C)C)CC4)n3Cc3ccccc32)cc1C [Example 232, (4-Isopropyl-1-piperazinyl){10-[(2′-methoxy-2-methyl[1,1′-biphenyl]-4-yl)carbonyl]-10,11-dihydro-5H-pyrrolo[2,1-c][1,4]benzodiazepin-3-yl}methanone]	4
Cc1ccccc1-c1ccc(C(=O)N2Cc3ccc(C(=O)N4CCN(C(C)C)CC4)n3Cc3ccccc32)cc1C [Example 233, {10-[(2,2′-Dimethyl[1,1′-biphenyl]-4-yl)carbonyl]-10,11-dihydro-5H-pyrrolo[2,1-c][1,4]benzodiazepin-3-yl}(4-isopropyl-1-piperazinyl)methanone]	23
COc1ccccc1-c1ccc(C(=O)N2Cc3ccc(C(=O)N4CCN(C(C)C)CC4)n3Cc3ccccc32)cc1 [Example 234, (4-Isopropyl-1-piperazinyl){10-[(2′-methoxy[1,1′-biphenyl]-4-yl)carbonyl]-10,11-dihydro-5H-pyrrolo[2,1-c][1,4]benzodiazepin-3-yl}methanone]	22
COc1cccc(-c2ccc(C(=O)N3Cc4ccc(C(=O)N5CCN(C(C)C)CC5)n4Cc4ccccc43)cc2C)c1 [Example 235, (4-Isopropyl-1-piperazinyl){10-[(3′-methoxy-2-methyl[1,1′-biphenyl]-4-yl)carbonyl]-10,11-dihydro-5H-pyrrolo[2,1-c][1,4]benzodiazepin-3-yl}methanone]	17
COc1cc(C(=O)N2Cc3ccc(C(=O)N4CCN(C(C)C)CC4)n3Cc3ccccc32)ccc1-c1cccc2ccccc12 [Example 236, (4-Isopropyl-1-piperazinyl){10-[3-methoxy-4-(1-naphthyl)benzoyl]-10,11-dihydro-5H -pyrrolo[2,1-c][1,4]benzodiazepin-3-yl}methanone]	5
COc1cc(C(=O)N2Cc3ccc(C(=O)N4CCN(C(C)C)CC4)n3Cc3ccccc32)ccc1-c1ccccc1C [Example 237, (4-isopropyl-1-piperazinyl){10-[(2-methoxy-2′-methyl[1,1′-biphenyl]-4-yl)carbonyl]-10,11-dihydro-5H-pyrrolo[2,1-c][1,4]benzodiazepin-3-yl}methanone]	-3
COc1cc(-c2ccccc2C)c(Cl)cc1C(=O)N1Cc2ccc(C(=O)N3CCN(C(C)C)CC3)n2Cc2ccccc21 [Example 238, {10-[(6-Chloro-3-methoxy-2′-methyl[1,1′-biphenyl]-4-yl)carbonyl]-10,11-dihydro-5H -pyrrolo[2,1-c][1,4]benzodiazepin-3-yl}(4-isopropyl-1-piperazinyl)methanone]	27
COc1cccc(-c2cc(OC)c(C(=O)N3Cc4ccc(C(=O)N5CCN(C(C)C)CC5)n4Cc4ccccc43)cc2Cl)c1 [Example 239, {10-[(6-Chloro-3,3′-dimethoxy[1,1′-biphenyl]-4-yl)carbonyl]-10,11-dihydro-5H-pyrrolo[2,1-c][1,4]benzodiazepin-3-yl}(4-isopropyl-1-piperazinyl)methanone]	16
Cc1cc(C(=O)N2Cc3ccc(C(=O)N4CCN(C(C)C)CC4)n3Cc3ccccc32)ccc1-c1ccccc1C(F)(F)F [Example 240, (4-Isopropyl-1-piperazinyl)(10-{[2-methyl-2′-(trifluoromethyl)[1,1′-biphenyl]-4-yl]carbonyl}-10,11-dihydro-5H-pyrrolo[2,1-c][1,4]benzodiazepin-3-yl)methanone]	9
COc1ccccc1-c1ccc(C(=O)N2Cc3ccc(C(=O)N4CCN(C(C)C)CC4)n3Cc3ccccc32)cc1OC [Example 241, {10-[(2,2′-Dimethoxy[1,1-biphenyl]4-yl)carbonyl]-10,11-dihydro-5H-pyrrolo[2,1-c][1,4]benzodiazepin-3-yl}(4-isopropyl-1-piperazinyl)methanone]	-17
COc1cccc(-c2ccc(C(=O)N3Cc4ccc(C(=O)N5CCN(C(C)C)CC5)n4Cc4ccccc43)cc2OC)c1 [Example 242, {10-[(2,3′-Dimethoxy[1,1′-biphenyl]-4-yl)carbonyl]-10,11-dihydro-5H-pyrrolo[2,1-c][1,4]benzodiazepin-3-yl}(4-isopropyl-1-piperazinyl)methanone]	25
